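The compound was tested at five concentrations on cells cultured in 96-well plates, with a 48-hour exposure period. TGI marks complete inhibition of growth.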
Tests used:
Assay in all cases: growth of human tumour cells (NCI), 48 h
ACHN renal = tested on: ACHN renal
TK-10 renal = tested on: TK-10 renal
NCI-H226 lung = tested on: NCI-H226 lung
NCI-H460 lung = tested on: NCI-H460 lung
UACC-257 melanoma = tested on: UACC-257 melanoma
HCC-2998 colon = tested on: HCC-2998 colon
SK-OV-3 ovarian = tested on: SK-OV-3 ovarian
NCI-H522 lung = tested on: NCI-H522 lung
COLO 205 colon = tested on: COLO 205 colon
SF-295 CNS = tested on: SF-295 CNS
K-562 leukemia = tested on: K-562 leukemia
HS 578T breast = tested on: HS 578T breast
UACC-62 melanoma = tested on: UACC-62 melanoma
LOX IMVI melanoma = tested on: LOX IMVI melanoma
HOP-92 NSCLC = tested on: HOP-92 NSCLC
A549 NSCLC = tested on: A549 NSCLC
A498 renal = tested on: A498 renal
UO-31 renal = tested on: UO-31 renal
NCI-H23 lung = tested on: NCI-H23 lung
RXF 393 renal = tested on: RXF 393 renal
MDA-N = tested on: MDA-N
CAKI-1 renal = tested on: CAKI-1 renal
SNB-75 CNS = tested on: SNB-75 CNS
HT29 colon = tested on: HT29 colon
IGROV1 ovarian = tested on: IGROV1 ovarian
CCRF-CEM leukemia = tested on: CCRF-CEM leukemia
MDA-MB-231 breast = tested on: MDA-MB-231 breast
SNB-19 CNS = tested on: SNB-19 CNS
PC-3 prostate = tested on: PC-3 prostate
SF-268 CNS = tested on: SF-268 CNS
SK-MEL-2 melanoma = tested on: SK-MEL-2 melanoma
KM12 colon = tested on: KM12 colon
NCI/ADR-RES ovarian = tested on: NCI/ADR-RES ovarian
SN12C renal = tested on: SN12C renal
MALME-3M melanoma = tested on: MALME-3M melanoma
OVCAR-4 ovarian = tested on: OVCAR-4 ovarian
MDA-MB-435 = tested on: MDA-MB-435
SF-539 CNS = tested on: SF-539 CNS
SK-MEL-5 melanoma = tested on: SK-MEL-5 melanoma
BT-549 breast = tested on: BT-549 breast
U251 CNS = tested on: U251 CNS
MOLT-4 leukemia = tested on: MOLT-4 leukemia
OVCAR-5 ovarian = tested on: OVCAR-5 ovarian
HL-60(TB) leukemia = tested on: HL-60(TB) leukemia
EKVX NSCLC = tested on: EKVX NSCLC
786-0 renal = tested on: 786-0 renal
RPMI-8226 leukemia = tested on: RPMI-8226 leukemia
HCT-15 colon = tested on: HCT-15 colon
DU-145 prostate = tested on: DU-145 prostate
OVCAR-8 ovarian = tested on: OVCAR-8 ovarian
M14 melanoma = tested on: M14 melanoma
SK-MEL-28 melanoma = tested on: SK-MEL-28 melanoma
HCT-116 colon = tested on: HCT-116 colon
T-47D breast = tested on: T-47D breast
SR leukemia = tested on: SR leukemia
HOP-62 NSCLC = tested on: HOP-62 NSCLC
SW-620 colon = tested on: SW-620 colon
MCF7 breast = tested on: MCF7 breast
OVCAR-3 ovarian = tested on: OVCAR-3 ovarian

c1ccc2nc3[nH]c4ccccc4c3cc2c1
TGI (ACHN renal): 12.2 µM
TGI (TK-10 renal): 10.7 µM
TGI (NCI-H226 lung): 18.3 µM
TGI (NCI-H460 lung): 1.46 µM
TGI (UACC-257 melanoma): 2.47 µM
TGI (HCC-2998 colon): 2.85 µM
TGI (SK-OV-3 ovarian): 79.9 µM
TGI (NCI-H522 lung): 1.52 µM
TGI (COLO 205 colon): 1.53 µM
TGI (SF-295 CNS): 2.24 µM
TGI (K-562 leukemia): > 100 µM
TGI (HS 578T breast): 5.84 µM
TGI (UACC-62 melanoma): 2.2 µM
TGI (LOX IMVI melanoma): 1.16 µM
TGI (HOP-92 NSCLC): 35.5 µM
TGI (A549 NSCLC): 9.14 µM
TGI (A498 renal): 43.1 µM
TGI (UO-31 renal): 13.1 µM
TGI (NCI-H23 lung): 1.81 µM
TGI (RXF 393 renal): 2.66 µM
TGI (MDA-N): 2 µM
TGI (CAKI-1 renal): 3.69 µM
TGI (SNB-75 CNS): 6.44 µM
TGI (HT29 colon): 1.75 µM
TGI (IGROV1 ovarian): 2.57 µM
TGI (CCRF-CEM leukemia): > 100 µM
TGI (MDA-MB-231 breast): 2.64 µM
TGI (SNB-19 CNS): 4.43 µM
TGI (PC-3 prostate): 4.09 µM
TGI (SF-268 CNS): 7.3 µM
TGI (SK-MEL-2 melanoma): 16 µM
TGI (KM12 colon): 1.81 µM
TGI (NCI/ADR-RES ovarian): 8.28 µM
TGI (SN12C renal): 3.34 µM
TGI (MALME-3M melanoma): 2.12 µM
TGI (OVCAR-4 ovarian): 2.79 µM
TGI (MDA-MB-435): 1.97 µM
TGI (SF-539 CNS): 1.23 µM
TGI (SK-MEL-5 melanoma): 2.01 µM
TGI (BT-549 breast): 2.87 µM
TGI (U251 CNS): 1.99 µM
TGI (MOLT-4 leukemia): 1.36 µM
TGI (OVCAR-5 ovarian): 20.4 µM
TGI (HL-60(TB) leukemia): 0.726 µM
TGI (EKVX NSCLC): 4.8 µM
TGI (786-0 renal): 1.16 µM
TGI (RPMI-8226 leukemia): 2.53 µM
TGI (HCT-15 colon): 1.38 µM
TGI (DU-145 prostate): 13.1 µM
TGI (OVCAR-8 ovarian): 2.35 µM
TGI (M14 melanoma): 1.85 µM

CC(C)(C)NC(NC(C)(C)C)=C(C(Cl)=C(Cl)Cl)[N+](=O)[O-]
TGI (SK-MEL-28 melanoma): > 100 µM
TGI (ACHN renal): > 100 µM
TGI (TK-10 renal): > 100 µM
TGI (NCI-H226 lung): > 100 µM
TGI (NCI-H460 lung): > 100 µM
TGI (UACC-257 melanoma): > 100 µM
TGI (HCC-2998 colon): > 100 µM
TGI (SK-OV-3 ovarian): > 100 µM
TGI (HCT-116 colon): > 100 µM
TGI (T-47D breast): > 100 µM
TGI (COLO 205 colon): > 100 µM
TGI (SF-295 CNS): > 100 µM
TGI (K-562 leukemia): > 100 µM
TGI (HS 578T breast): > 100 µM
TGI (UACC-62 melanoma): > 100 µM
TGI (LOX IMVI melanoma): > 100 µM
TGI (A549 NSCLC): > 100 µM
TGI (A498 renal): > 100 µM
TGI (SR leukemia): > 100 µM
TGI (HOP-62 NSCLC): > 100 µM
TGI (UO-31 renal): > 100 µM
TGI (NCI-H23 lung): > 100 µM
TGI (RXF 393 renal): > 100 µM
TGI (MDA-N): > 100 µM
TGI (CAKI-1 renal): > 100 µM
TGI (SNB-75 CNS): > 100 µM
TGI (HT29 colon): > 100 µM
TGI (IGROV1 ovarian): > 100 µM
TGI (CCRF-CEM leukemia): > 100 µM
TGI (MDA-MB-231 breast): > 100 µM
TGI (SNB-19 CNS): > 100 µM
TGI (PC-3 prostate): > 100 µM
TGI (SF-268 CNS): > 100 µM
TGI (SW-620 colon): > 100 µM
TGI (KM12 colon): > 100 µM
TGI (NCI/ADR-RES ovarian): > 100 µM
TGI (SN12C renal): > 100 µM
TGI (MALME-3M melanoma): > 100 µM
TGI (MCF7 breast): > 100 µM
TGI (OVCAR-4 ovarian): > 100 µM
TGI (OVCAR-3 ovarian): > 100 µM
TGI (SF-539 CNS): > 100 µM
TGI (SK-MEL-5 melanoma): > 100 µM
TGI (BT-549 breast): > 100 µM
TGI (U251 CNS): > 100 µM
TGI (MOLT-4 leukemia): > 100 µM
TGI (OVCAR-5 ovarian): > 100 µM
TGI (HL-60(TB) leukemia): > 100 µM
TGI (EKVX NSCLC): > 100 µM
TGI (786-0 renal): > 100 µM
TGI (RPMI-8226 leukemia): > 100 µM
TGI (HCT-15 colon): > 100 µM
TGI (DU-145 prostate): > 100 µM
TGI (OVCAR-8 ovarian): > 100 µM
TGI (M14 melanoma): > 100 µM
